Experimental data: patent publication US8129532B2, “Amino(oligo)thiophene dyes, preparation thereof, and optical methods of use” (The University of Connecticut, priority 2007, dated 2012)
Each block holds one compound with its values, some of them ahead of it.

Key:
[1] = One-photon absorption and emission spectra in multilamellar lipid vesicles, water and ethanol; assay type: physicochemical
Excerpt: […] The column indicating relative signal change for one-photon fluorescence also lists the excitation light source used and the lower bounds of the long-pass emission detected.
Absorption and emission spectra were obtained for a series of dyes with different acceptors: pyridinium (PY-1261), quinolinium (PY-212), and acridinium (PY-2240).

[2] = test system: layer V pyramidal neurons; assay: Voltage-sensitive dye imaging of action potentials in intracellularly stained pyramidal neurons in brain slices; assay type: cell-based, Sprague Dawley rats
Excerpt: Sprague Dawley rats (P21-42) were anesthetized with isoflurane, decapitated, and the brains were removed with the head immersed in ice-cold, artificial cerebrospinal fluid (ACSF), according to an animal protocol approved by the Center for Laboratory Animal Care, University of Connecticut. Brain slices (300 μm) were cut from frontal lobes in the coronal plane. ACSF contained (in mM) 125 NaCl, 26 NaHCO3, 10 glucose, 2.3 KCl, 1.26 KH2PO4, 2 CaCl2 and 1 MgSO4, pH 7.4. Whole-cell recordings were made from visually identified layer V pyramidal neurons on the medial part of the slice. Intracellular solution contained (in mM) 135 K-gluconate, 2 MgCl2, 3 Na2-ATP, 10 Na2-phosphocreatine, 0.3 Na2-GTP and 10 Hepes (pH 7.3, adjusted with KOH). Electrical signals were amplified with Multiclamp 700A and digitized with two input boards: (1) Digidata Series 1322A (Axon Instruments) at 5 kHz, and (2) Neuroplex (RedShirtImaging) at 2.7 kHz sampling rate. Only cells with a membrane potential more hyperpolarized than −50 mV, and action potential amplitudes exceeding 80 mV (measured from the base line) were included in this study. All experiments were performed on layer 5 cortical pyramidal cells at 34° C.
Blue dyes were stored in ethanol stock solution at −20° C. On the day of the recording blue dyes were dissolved in standard K-gluconate based intracellular solution. A loading pipette was filled with two varieties of the same intracellular solution; one with and one without dye. Dye-free solution was occupying the very tip of the pipette, while the back of the pipette lumen was microloaded with dye-rich solution. The purpose of dye-free solution in the tip of the patch pipette was to prevent dye-leak during the maneuver through brain slice tissue. VSD styryl dyes are lipophilic and bind indiscriminately and irreversibly to all membranes around the neuron of interest. Even a small amount of dye that leaks out of the pipette during the formation of the gigaohm seal, can generate strong fluorescent background. Fluorescent light emanating from surrounding tissue has a devastating effect on dendritic optical signals. Elimination of the background fluorescence is critical for dendritic voltage imaging. How much dye-free solution one should put in the tip depends on time period between the submersion of the patch pipette into the recording chamber and formation of the gigaohm seal. The faster one can perform this maneuver the less dye-free solution she needs to achieve optimal staining.
Blue VSD were injected at room temperature for 25-60 minutes. The filling pipette was carefully pulled out (outside-out patch) and brain slices were left to incubate for 20-120 minutes at room temperature. Just before optical recordings the cells were re-patched with dye-free pipette at the physiological temperature (34° C.).
Voltage-sensitive dye imaging was performed on a Zeiss Axioskope 2FS microscope equipped with NeuroCCD camera (RedShirtImaging). We used Zeiss 40× objective IR-Achroplan 0.80 W. The size of the square visual field captured by NeuroCCD camera was 384×384 um. In the place of the arc lamp (normally used for epi-illumination), we inserted a 200 μm fiber optic guide with a collimator. Laser beam was focused on the other side of the fiber optic guide using a microscope objective-like lens. This arrangement produced a motionless spot of laser light (˜25 μm in diameter) at the object plane. An illuminated section of the brain slice, projected onto the NeuroCCD camera, covered approximately 25 pixels when used with 40× objective lens. At this magnification, one pixel sampled a 4.8×4.8 square in the object plane. A region of interest (ROI) was brought into the laser spot using X-Y microscope platform. The laser beam was interrupted by an electro-programmable shutter (Uniblitz®). Attention was made to limit the exposure time during the recording and positioning of the neuron.

[3] = test system: layer V pyramidal neurons; assay: Toxicity / photodynamic damage: AP half-width during optical recording; conditions: Sprague-Dawley, rat
Excerpt: S. Antic, G. Major, D. Zecevic, “Fast optical recordings of membrane potential changes from dendrites of pyramidal neurons”, Journal of Neurophysiology, 82, 1615-1621 (1999). Accumulation of reactive oxygen species (free radicals), which interact with and damage neuronal plasmalemma, is the most likely mechanism. J. B. Feix, B. Kalyanaraman, “Production of singlet oxygen-derived hydroxyl radical adducts during merocyanine-540-mediated photosensitization: analysis by ESR-spin trapping and HPLC with electrochemical detection”, Archives of Biochemistry & Biophysics, volume 291, pages 43-51 (1991). High intensity illumination during optical recording sessions excites large number of membrane bound dye molecules. Since styryl dyes have tendency to penetrate deep into the lipid bilayers (E. Fluhler, V. G. Burnham, L. M. Loew, “Spectra, membrane binding, and potentiometric responses of new charge shift probes”, Biochemistry, 24, 5749-5755 (1985)), free radicals are produced literally inside the neuronal membrane. […] S. D. Antic, “Action potentials in basal and oblique dendrites of rat neocortical pyramidal neurons”, Journal of Physiology 550, 35-50 (2003). […] Since dye loading was always done at room temperature (21° C.) and re-patching at 34° C., we could not compare AP shape and size before and after dye loading. Therefore, in order to check the extent of dye toxicity we designed a group of experiments in which neurons were injected and incubated at 34° C. During the dye injection (loading phase), in regular time intervals (3-5 min) direct current pulses was used to slowly charge the membrane and trigger an AP (FIG. 14A). Identical current pulse was then applied at the end of dye loading phase, just before the electrode pull-out (FIG. 14B) and after the 50-90 min incubation period (FIG. 14C, re-patch). […] To avoid AP jitter in optical recordings we used shorter and stronger current pulses (FIG. 14D, E, F, insets). However, from time to time we returned to AP-testing current injection protocol (FIG. 14D, E), while keeping the count on the number of cumulative high-intensity light exposures (# sweeps). […] Additional experimental details can be found in Ping Yan, Aifang Xie, Meide Wei, and Leslie M. Loew, “Amino(oligo)thiophene-Based Environmentally Sensitive Biomembrane Chromophores”, Journal of Organic Chemistry, published on web Jul. 30, 2008.

[4] = One-photon fluorescence relative signal change per 100 mV; conditions: excitation / long-pass emission (nm) given
Excerpt: The left-most data columns of Table 1 are the absorption and emission maxima for one photon fluorescence in soybean multi-lamellar lipid vesicles used to mimic the membrane environment. The column indicating relative signal change for one-photon fluorescence also lists the excitation light source used and the lower bounds of the long-pass emission detected.

[5] = test system: NIE-115 mouse neuroblastoma; assay: SHG and 2PF voltage sensitivity, 50 mV step, slow switching protocol on patch-clamped neuroblastoma cell; assay type: cell-based; conditions: comparator named in the sentence (PY-1266; PY-1268)
Excerpt: For full details of our non-linear imaging microscope, we refer the reader to previously published descriptions. A. C. Millard, P. J. Campagnola, W. Mohler, A. Lewis, and L. M. Loew, “Second Harmonic Imaging Microscopy,” Meth. Enzymol. 361, 47-69 (2003); Millard, A. C., L. Jin, and L. M. Loew, “Second Harmonic Generation Imaging Microscopy with a High Power Ultrafast Fiber Laser,”Commercial and Biomedical Applications of Ultrafast Lasers. 5714-5716, 92-98 (2005); A. C. Millard, L. Jin, M.-D. Wei, J. P. Wuskell, A. Lewis, and L. M. Loew, “Sensitivity of Second Harmonic Generation from Styryl Dyes to Transmembrane Potential,” Biophys. J. 86, 1169-1176 (2004). Our current microscope combines a Fluoview (Olympus) scan-head and an Axiovert (Zeiss) inverted microscope constructed for multiple imaging methodologies including wide-field, one-photon excitation fluorescence imaging, as well as SHG and 2PF imaging. Our laser sources include a Mira (Coherent) Ti:sapphire laser and a Femtopower (Fianium) fiber laser operating at 1064 nm. […] Fluorescence is imaged (for linear imaging) or collected (for non-linear imaging) back through the excitation objective, while SHG is collected in the forward, transmitted light direction by a condenser, either 0.8 NA or 0.55 NA (Zeiss). […]

[6] = test system: NIE-115 mouse neuroblastoma; assay: Time-dependence (kinetics) of SHG and 2PF signal change after voltage-clamp step; assay type: cell-based; conditions: time resolution 5 ms
Excerpt: For full details of our non-linear imaging microscope, we refer the reader to previously published descriptions. A. C. Millard, P. J. Campagnola, W. Mohler, A. Lewis, and L. M. Loew, “Second Harmonic Imaging Microscopy,” Meth. Enzymol. 361, 47-69 (2003); Millard, A. C., L. Jin, and L. M. Loew, “Second Harmonic Generation Imaging Microscopy with a High Power Ultrafast Fiber Laser,”Commercial and Biomedical Applications of Ultrafast Lasers. 5714-5716, 92-98 (2005); A. C. Millard, L. Jin, M.-D. Wei, J. P. Wuskell, A. Lewis, and L. M. Loew, “Sensitivity of Second Harmonic Generation from Styryl Dyes to Transmembrane Potential,” Biophys. J. 86, 1169-1176 (2004). Our current microscope combines a Fluoview (Olympus) scan-head and an Axiovert (Zeiss) inverted microscope constructed for multiple imaging methodologies including wide-field, one-photon excitation fluorescence imaging, as well as SHG and 2PF imaging. Our laser sources include a Mira (Coherent) Ti:sapphire laser and a Femtopower (Fianium) fiber laser operating at 1064 nm. Millard, A. C., L. Jin, and L. M. Loew, “Second Harmonic Generation Imaging Microscopy with a High Power Ultrafast Fiber Laser,”Commercial and Biomedical Applications of Ultrafast Lasers. 5714-5716, 92-98 (2005). For excitation, we routinely use an IR-Achroplan (Zeiss) 40×, 0.8 NA water-immersion objective though for shorter wavelengths we also use an A-Plan (Zeiss) 40×, 0.65 NA air objective. Fluorescence is imaged (for linear imaging) or collected (for non-linear imaging) back through the excitation objective, while SHG is collected in the forward, transmitted light direction by a condenser, either 0.8 NA or 0.55 NA (Zeiss). For optimal collection, the numerical aperture of the condenser should be at least 1/√2 of the numerical aperture of the excitation objective (L. Moreaux, O. Sandre, S. Charpak, M. Blanchard-Desce, and J. Mertz, “Coherent Scattering in Multi-Harmonic Light Microscopy,” Biophys. J. 80, 1568-1574 (2001); L. Moreaux, O. Sandre, and J. Mertz. “Membrane Imaging by Second Harmonic Generation Microscopy,” J. Opt. Soc. Am. B. 17, 1685-1694 (2000)), though in practice a condenser of slightly lower numerical aperture will often suffice. Since the wavelength of second harmonic light is precisely half that of the excitation light, the choice of filter for SHG imaging is greatly simplified and the primary concern is the blocking of the excitation light that is also transmitted through the sample as well as fluorescence that is emitted forwards.
NIE-115 mouse neuroblastoma were cultured in DMEM with 10% fetal bovine serum and 1% antibiotic-antimycotic (Invitrogen, Carlsbad, Calif.) in a 60 mm plastic dish (353002, Becton Dickinson, Franklin Lakes, N.J.). The culture was maintained at 37° C. with 5% CO2 for a period of 48 hours prior to experimentation.
For experimentation the growth medium was replaced with 3 mL of Earle's Balanced Salt Solution (EBSS, Sigma, St. Louis, Mo.) with 20 mM HEPES (Merck Biosciences AG, Laufelfingen, Switzerland). The internal buffer, injected into the patch pipette, was a potassium aspartate (140 mM, Sigma, St. Louis, Mo.), sodium chloride (5 mM, Sigma, St. Louis, Mo.) and HEPES (10 mM) solution at a pH of 7.35. The pH was adjusted with potassium hydroxide and hydrochloric acid.
For characterizing the voltage-sensitivity of SHG and 2PF, we used a slow (˜0.1 Hz) switching protocol as previously described (A. C. Millard, P. J. Campagnola, W. Mohler, A. Lewis, and L. M. Loew, “Second Harmonic Imaging Microscopy,” Meth. Enzymol. 361, 47-69 (2003); Millard, A. C., L. Jin, and L. M. Loew, “Second Harmonic Generation Imaging Microscopy with a High Power Ultrafast Fiber Laser,” Commercial and Biomedical Applications of Ultrafast Lasers. 5714-5716, 92-98 (2005); A. C. Millard, L. Jin, M.-D. Wei, J. P. Wuskell, A. Lewis, and L. M. Loew, “Sensitivity of Second Harmonic Generation from Styryl Dyes to Transmembrane Potential,” Biophys. J. 86, 1169-1176 (2004)) with a 50 mV step. […]

[7] = one photon, soybean multi-lamellar lipid vesicles

- Absorbance ethanol ([1]; ethanol): 584 nm
- Emission ethanol ([1]; ethanol): 812 nm
- Absorbance MLV ([1]; multilamellar lipid vesicles): 526 nm
- Emission MLV ([1]; multilamellar lipid vesicles): 702 nm
- Absorbance water ([1]; water): 490 nm
Structure (SMILES): CCN(CC)c1ccc2cc(/C=C/C=C/c3cc[n+](CCC[N+](C)(C)C)c4ccccc34)ccc2c1.[Br-].[Br-] [JPW-4090, Di-2-ANBDQPQ]
- polarity of optical signal at 532 nm excitation [2]: positive signals
- polarity of optical signal at 658 nm excitation [2]: positive signals
- optical signal amplitude of blue dye relative to red dye JPW-3028 ([2]; FIG. 11): approximately 3 times
- AP-associated optical signal, single example (base line-to-peak) ([2]; FIG. 11, basal dendrite): 17 % ΔF/F
- dF/F at 633 nm ([2]; backpropagating AP, basal dendrites 80-150 μm from soma, laser spot 633 nm, %): 12.70 ± 3.59%
- dF/F at 658 nm ([2]; backpropagating AP, basal dendrites 80-150 μm from soma, laser spot 658 nm, %): 11.03 ± 2.24%
- voltage sensitivity compared with red dye ([2]; basal dendrites 80-150 μm from soma): better sensitivity than red dye JPW-3028
- S/N ratio at 633 nm ([2]; laser spot 633 nm): 5.48 ± 2.01
- S/N ratio at 658 nm ([2]; laser spot 658 nm): 6.93±1.88
- slope of linear fit, AP half-width versus cumulative sweeps [3]: 0.0003
- sweeps recorded per session on average [3]: 114±67 sweeps
- time since beginning of dye injection without AP broadening [3]: ≥ 192 min

- 1PF Abs. Max [1, 7]: 530 nm
- 1PF Em. Max [1, 7]: 676 nm
Structure (SMILES): CC[N+](CC)(CC)CCC[n+]1ccc(/C=C/c2ccc(-c3ccc(N(C)C)s3)s2)cc1 [PY-1282]
- 1PF Change (ΔF/F-100 mv) [4]: 8.0E−002; 640/>715 ΔF/F-100 mv
- SHG signal sensitivity relative to another dye [5]: three-fold increase
- SHG Kinetics (exponential time constant) [6]: 16 ± 1 ms
